In patent publication US11072619B2, “Pyrazole[1,5-a] pyrimidine derivatives as kinase JAK inhibitors” (CELON PHARMA S.A., priority 2017, dated 2021):

Columns and labels:
[1] = test system: STAT6 protein phosphorylation in TF-1 cells; test: STAT6 phosphorylation inhibition in vitro in TF-1 cells with IL-4; format: cell-based; details: Homo sapiens, IL-4 20 ng/mL, 1 hour, Western blot densitometry
Method: Assay of STAT6 Phosphorylation Inhibition In Vitro
The activity of the compounds of the invention was tested using in vitro assay described below.
Tested compounds were dissolved in 100% DMSO, and obtained stock solutions were serially in OptiMEM medium (Reduced Serum Medium-Thermo Fisher Scientific). TF-1 cells (DSMZ no.: ACC 334) in culture medium (80% RPMI 1640+20% FBS) in the presence of IL-4 at 20 ng/mL were sieved on 12-well plates at 900 μl/well, 700 thousands of cells/well. To a well of the 12-well plate 100 μL of obtained 10× solution of the compounds were added. Cells on 12-well plates were incubated with tested compounds for 1 hour at 37° C., 5% CO2. Subsequently the cells were washed with PBS, lysed in RIPA buffer added with EDTA, proteases and phosphatases inhibitors, and incubated for 5 min on ice. Protein concentration was determined using Pierce BCA Protein Assay Kit (Thermo Fisher Scientific). Protein lysates were separated by electrophoresis (SDS-PAGE) on 8% polyacrylamide gels, then wet-transferred on nitrocellulose membrane and tested proteins were detected in accordance with the instructions of antibody manufacturer.
On the basis of the measurement of chemoluminescence intensity densitometric analysis was performed, results obtained for the cells treated with tested compounds at various concentrations were compared with those obtained for control cells, and IC50 values were determined.
These values were determined with Graph Pad software v. 5.03, by fitting points of the curve using non-linear regression method. Each compound was tested in at least 3 repetitions.

TF-1 cells [2] = test: TF-1 cells viability in vitro in the presence of IL-3 (JAK2 activation); format: cell-based; details: Homo sapiens, 5 ng/mL IL-3, 72 hours, ATPlite, read-out: JAK2 IL3 (EC50, inhibition of viability of TF-1 cells)
Method: (§1) Assay for TF-1 Cells Viability In Vitro
(§2) The effects of the activity of the compounds of the invention were tested in vitro using cells viability assay described below.
Tested compounds were dissolved in 100% DMSO, and obtained stock solutions were serially diluted in OptiMEM medium (Reduced Serum Medium-Thermo Fisher Scientific). […] To a well of the 96-well plate 10 μL of the prepared 10× stock solutions of the compounds. Cells on 96-well plates were incubated with the compounds for 72 hours at 37° C., 5% CO2. Subsequently, viability of the cells was measured using ATPlite kit (Perkin Elmer). For this purpose, 50 μL of lysis buffer (mammalian cell lysis solution) were added to a well of the 96-well plate and the plate was incubated for 10 minutes at 25° C. in a plate thermo-shaker with orbital stirring at 600 rpm. Then to a well of the 96-well plate 50 μL of substrate (substrate solution) were added and incubated for 15 minutes at in dark, in a plate thermo-shaker with orbital stirring at 600 rpm. After incubation time, luminescence intensity in a well was measured using Victor×Light luminometer (Perkin Elmer, Inc.).
On the basis of luminescence intensity measurements in well containing tested compounds at various concentrations and in control wells EC50 values were determined. These values were determined with Graph Pad software v. […] Each compound was tested in at least 6 repetitions (6 wells) on two 96-well plates, using at least 3 wells of each control.

Recombinant kinase JAK1 = Recombinant kinase JAK1 (Homo sapiens (Human), UniProt P23458); test: In vitro JAK kinase inhibition assay (ADP-Glo), JAK1; format: biochemical; details: 30 μM ATP, peptide IRS-1, averaged
Method: (§3) In Vitro JAK Kinase Inhibition Assay
(§4) The effects of the compounds of the invention were analysed in vitro using kinase JAK inhibition assay described below.
(§5) Tested compounds were dissolved in 100% DMSO, and obtained stock solutions were serially diluted in the reaction buffer (50 mM Tris pH 7.5, 10 mM MgCl2, 0.25 mM EGTA, 0.1 mM Na3VO4, 0.01% Triton X-100, 2.5 mM DTT). Recombinant kinases JAK1 (ProQinase), JAK2, or JAK3 (Carna Biosciences) were diluted in the dilution buffer (50 mM Tris-HCl pH 7.5, 150 mM NaCl, 10% glycerol, 0.05% Triton X-100, 1 mM DTT) to the final concentration 3 ng/μL (JAK1), 0.1 ng/μL (JAK2), or 0.2 ng/μL (JAK3). 5 μL of obtained solution of the compounds and 5 μL of the solution of respective kinases were added to the well of a 96-well plate. To initiate interaction between tested compounds and an enzyme, the plate was incubated for 10 minutes at 25° C. in a Plate-Thermo-Shaker with orbital stirring at 400 rpm. Wells of a negative control contained all reagents as mentioned above with the exception of tested compounds and kinase, and wells of a positive controls contained all reagents as mentioned above with the exception of tested compounds. Enzymatic reaction was initiated by the addition of 15 μL of the following solution: 5× concentrated reaction buffer (50 mM Tris pH 7.5, 10 mM MgCl2, 0.25 mM EGTA, 0.1 mM Na3VO4, 0.01% Triton X-100, 2.5 mM DTT), water, 30 μM ATP and for particular kinases: JAK1—60 μM peptide IRS-1 (Enzo), JAK2 or JAK3—10 μM peptide IGF-1Rtide (Lipopharm). Then the plate was incubated for 1 hour at 25° C. in a Plate-Thermo-Shaker, with orbital stirring at 400 rpm. Detection of ADP formed in the enzymatic reaction was then performed using ADP-Glo Kinase Assay kit (Promega). For this purpose, to the well of the 96-well plate 25 μL of ADP-Glo Reagent were added, and the plate was incubated for 40 minutes at 25° C. in a Plate-Thermo-Shaker with orbital stirring at 400 rpm. Then to the well of the 96-well plate 50 μL of Kinase Detection Reagent were added and the plate was incubated for 30 minutes at 25° C. in a Plate-Thermo-Shaker with orbital stirring at 400 rpm. After incubation, luminescence intensity was measured using Victor×Light luminometer (Perkin Elmer, Inc.).
(§6) On the basis of luminescence measurement in wells containing tested compounds at various concentrations and in control wells, IC50 values were determined. These values were determined with Graph Pad software v. 5.03, by fitting points of the curve using non-linear regression method. Each compound was tested in at least 6 repetitions (6 wells) on two 96-well plates, using at least 3 wells of each control.
(§7) Averaged results of kinases JAK inhibition activity for selected compounds of the present invention are presented below in Table 1.

Recombinant kinase JAK3 = Recombinant kinase JAK3 (Homo sapiens (Human), UniProt P52333); test: In vitro JAK kinase inhibition assay (ADP-Glo), JAK3; format: biochemical; details: 30 μM ATP, peptide IGF-1Rtide, averaged
Method: as §3, §4, §5, §6, §7

TF-1 cells [3] = test: TF-1 cells viability in vitro in the presence of IL-4 (JAK1/JAK3 activation); format: cell-based; details: Homo sapiens, TF-1; 20 ng/mL IL-4, 72 hours, ATPlite; read-out: JAK1,3 IL4 (EC50, inhibition of viability of TF-1 cells)
Method: as §1, §2
Tested compounds were dissolved in 100% DMSO, and obtained stock solutions were serially diluted in OptiMEM medium (Reduced Serum Medium-Thermo Fisher Scientific). TF-1 cells (DSMZ no.: ACC 334) in culture medium (80% RPMI 1640+20% FBS) ad in the presence of 5 ng/mL IL-3 or 20 ng/mL IL-4 were deposited on 96-well plates in the volume of 90 μl per well, 10 thousands of cells per well. To a well of the 96-well plate 10 μL of the prepared 10× stock solutions of the compounds. Cells on 96-well plates were incubated with the compounds for 72 hours at 37° C., 5% CO2. Subsequently, viability of the cells was measured using ATPlite kit (Perkin Elmer). For this purpose, 50 μL of lysis buffer (mammalian cell lysis solution) were added to a well of the 96-well plate and the plate was incubated for 10 minutes at 25° C. in a plate thermo-shaker with orbital stirring at 600 rpm. Then to a well of the 96-well plate 50 μL of substrate (substrate solution) were added and incubated for 15 minutes at in dark, in a plate thermo-shaker with orbital stirring at 600 rpm. After incubation time, luminescence intensity in a well was measured using Victor×Light luminometer (Perkin Elmer, Inc.).
as §6, with “luminescence intensity measurements” for “luminescence measurement”, “in well” for “in wells”, “control wells EC50” for “control wells, IC50”

Chain of Recombinant kinase JAK3 (P52333 whole entry): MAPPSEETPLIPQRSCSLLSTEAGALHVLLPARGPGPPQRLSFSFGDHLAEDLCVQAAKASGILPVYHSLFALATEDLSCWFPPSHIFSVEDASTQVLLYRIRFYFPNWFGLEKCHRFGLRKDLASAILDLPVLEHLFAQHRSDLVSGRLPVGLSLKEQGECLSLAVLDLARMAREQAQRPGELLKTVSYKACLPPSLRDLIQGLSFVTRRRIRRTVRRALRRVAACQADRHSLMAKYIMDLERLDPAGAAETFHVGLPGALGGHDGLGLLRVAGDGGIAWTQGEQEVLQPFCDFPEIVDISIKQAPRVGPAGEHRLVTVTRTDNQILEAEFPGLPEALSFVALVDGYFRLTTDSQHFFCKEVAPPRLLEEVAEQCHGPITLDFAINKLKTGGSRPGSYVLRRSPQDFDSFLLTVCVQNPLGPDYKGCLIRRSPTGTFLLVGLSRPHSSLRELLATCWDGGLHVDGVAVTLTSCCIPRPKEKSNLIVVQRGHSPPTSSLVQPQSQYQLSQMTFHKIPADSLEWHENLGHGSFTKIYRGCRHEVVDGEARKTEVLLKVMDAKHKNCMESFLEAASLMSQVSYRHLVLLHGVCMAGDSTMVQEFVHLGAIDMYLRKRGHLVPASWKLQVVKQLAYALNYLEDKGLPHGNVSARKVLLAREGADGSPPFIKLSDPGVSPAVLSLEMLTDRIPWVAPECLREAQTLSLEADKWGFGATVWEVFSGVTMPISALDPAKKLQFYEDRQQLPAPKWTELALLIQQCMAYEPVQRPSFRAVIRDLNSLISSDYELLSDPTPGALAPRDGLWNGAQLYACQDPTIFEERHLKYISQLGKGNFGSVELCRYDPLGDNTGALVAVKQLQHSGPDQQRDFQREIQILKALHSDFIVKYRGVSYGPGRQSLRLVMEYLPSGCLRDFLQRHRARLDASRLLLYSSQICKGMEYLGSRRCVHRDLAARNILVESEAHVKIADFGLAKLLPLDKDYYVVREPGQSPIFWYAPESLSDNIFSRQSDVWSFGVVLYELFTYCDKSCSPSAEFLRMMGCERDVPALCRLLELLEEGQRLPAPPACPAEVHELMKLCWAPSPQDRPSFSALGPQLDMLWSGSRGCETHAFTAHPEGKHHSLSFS
Chain of Recombinant kinase JAK1 (P23458 whole entry): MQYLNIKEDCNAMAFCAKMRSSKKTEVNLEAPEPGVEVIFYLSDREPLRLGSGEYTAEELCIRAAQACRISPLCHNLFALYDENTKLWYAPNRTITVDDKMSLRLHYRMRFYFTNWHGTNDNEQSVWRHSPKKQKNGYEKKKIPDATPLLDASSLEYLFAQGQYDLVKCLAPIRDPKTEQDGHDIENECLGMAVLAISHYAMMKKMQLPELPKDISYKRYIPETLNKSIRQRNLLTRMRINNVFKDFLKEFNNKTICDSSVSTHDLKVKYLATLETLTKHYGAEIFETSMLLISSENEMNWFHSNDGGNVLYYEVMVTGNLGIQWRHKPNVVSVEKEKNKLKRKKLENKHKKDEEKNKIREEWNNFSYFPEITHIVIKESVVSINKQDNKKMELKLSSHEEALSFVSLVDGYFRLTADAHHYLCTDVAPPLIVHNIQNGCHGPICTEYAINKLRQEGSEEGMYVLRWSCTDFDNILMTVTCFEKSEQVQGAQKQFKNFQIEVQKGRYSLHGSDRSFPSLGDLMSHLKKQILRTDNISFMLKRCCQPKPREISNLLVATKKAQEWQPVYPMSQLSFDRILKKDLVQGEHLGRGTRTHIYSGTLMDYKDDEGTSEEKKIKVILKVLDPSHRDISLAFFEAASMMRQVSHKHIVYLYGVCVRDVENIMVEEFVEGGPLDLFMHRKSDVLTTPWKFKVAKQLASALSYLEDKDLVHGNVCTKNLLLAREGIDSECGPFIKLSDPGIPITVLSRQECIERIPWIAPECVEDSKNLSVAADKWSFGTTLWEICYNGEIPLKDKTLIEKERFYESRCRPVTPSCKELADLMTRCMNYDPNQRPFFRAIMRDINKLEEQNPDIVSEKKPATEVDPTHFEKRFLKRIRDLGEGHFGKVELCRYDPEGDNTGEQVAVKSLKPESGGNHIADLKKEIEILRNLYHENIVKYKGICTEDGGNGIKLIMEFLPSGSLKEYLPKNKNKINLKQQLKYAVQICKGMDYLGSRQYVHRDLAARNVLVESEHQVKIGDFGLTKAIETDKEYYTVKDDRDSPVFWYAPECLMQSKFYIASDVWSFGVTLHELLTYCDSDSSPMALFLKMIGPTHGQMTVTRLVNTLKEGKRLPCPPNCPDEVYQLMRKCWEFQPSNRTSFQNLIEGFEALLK

CC1(C)CN(c2ccc(C#N)nn2)CC[C@H]1Nc1c(C(N)=O)cnc2cc(-c3ccnc(N4CCOCC4)c3)nn12 [Example 13, (R)-7-((1-(6-Cyanopyridazin-3-yl)-3,3-dimethylpiperidin-4-yl)amino)-2-(2-morpholinopyridin-4-yl)pyrazolo[1,5-a]pyrimidine-6-carboxamide] showed an IC50 [1] of 215 nM, an IC50 (TF-1 cells [2]) of 1120 nM and an IC50 (Recombinant kinase JAK1) of 0.51 nM. It also gave an IC50 (Recombinant kinase JAK3) of 0.2 nM and an IC50 (TF-1 cells [3]) of 202 nM.
